Test results as given in patent publication US20230263798A1, “COMPOSITIONS AND METHODS FOR TREATING THERAPY RESISTANT CANCER” (The General Hospital Corporation, priority 2020, published 2023).
Entries after “also recorded” stand apart in the source; their conditions may differ.

Tests used:
Format in all cases: cell-based
METTL3 [1] = experiment: Western blot analysis of METTL3 in MCF7 cells; conditions: for METTL3 level in doxorubicin treated cells co-treated with agent: doxorubicin treated cells plus agent vs buffer treated
Description: The Western blot includes samples with control shRNA or shMETTL3. […] Tubulin and Histone serve as Western blot loading controls. Data are average of 3 replicates +/-SEM. See also FIGS. 2A-2G.
(§1) Data are average of 3 replicates +/-SEM. Tubulin serves as the loading control.
(§2) Tubulin and Histone serve as Western blot loading controls. Data are average of 3 replicates +/-SEM. See also FIGS. 4A-4H.
(§3) Actin and Tubulin are loading controls for Western blots. Data are average of 3 replicates +/-SEM.
(§4) FIGS. 8C and 8D show Western blot analysis of PARP1, phospho-elF2α, METTL3 with doxorubicin or Sal003 treatment. […] 500 nM Doxorubicin treated MCF7 cells were co-treated with 6uM of Enzastaurin or DMSO buffer. […] Data are average of 3 replicates +/-SEM.
(§5) To determine the mechanisms of specific mRNA expression in chemosurviving cancer cells, we examined RNA binding regulators in chemosurviving MCF7 breast cancer cells, isolated after doxorubicin chemotherapy treatment.

METTL14 = experiment: Western blot analysis of METTL14 in MCF7 cells
Description: as §2, §3
Western blot is shown of other RNA binding proteins that increase in mass spectrometry data. […] FIGS. 6J and 6K show Hexim, PPM1G and HuR increase in chemotreated patient samples and on doxorubicin treatment.
(§6) If METTL3 is increased by Sal003, then m6A on RNA should increase in such conditions.

phospho-elF2α [2] = experiment: Western blot of elF2α phosphorylation in MCF7 cells; conditions: for elF2α phosphorylation: MCF7 cells, agent alone, Western blot; for elF2α phosphorylation in doxorubicin treated cells with agent: addition to doxorubicin treated cells (FIG. 8F)
Experimental: as §4

m6A on RNA = experiment: m6A on ribosomal RNA depleted RNA (dot blot, 2D-TLC); conditions: MCF7 3D tumor spheres, dot blot
Experimental: The Western blot includes samples with control shRNA or shMETTL3. […] Tubulin and Histone serve as Western blot loading controls. Data are average of 3 replicates +/-SEM. See also FIGS. 2A-2G. […]
To test whether the increased m6A modification enzymes lead to increased m6A modification on RNA, ribosomal RNA depleted RNA from doxorubicin treated cells compared to untreated cells by dot blot analyses was tested. […] Consistent with decreased METTL3 upon knockdown, the dot blot signal is depleted when METTL3 is knocked down (FIG. 1B). Second, RNA from doxorubicin treated cells for m6A by two-dimensional-thin layer chromatography separation (2D-TLC) was performed (H. Grosjean, G. Keith, L. Droogmans, Detection and quantification of modified nucleotides in RNA using thin-layer chromatography. Methods in molecular biology (Clifton, N.J.) 265, 357-391 (2004)).

[3] = system: CD14+ monocytes, CD8+ T cells, and NK (NK92) cells; experiment: Co-culture of treated cancer cells with immune cells; conditions: untreated or doxorubicin or gemcitabine treated cells plus agent
Description: APOBEC3B would lead to neoepitopes that could trigger the immune system. However, this is not readily seen as inhibitors of immune cells such as TGF-β that inhibits NK cells are increased in doxorubicin treated breast cancer cells. […] M6A also downregulates antiviral innate immune response while promoting ADAR1 that suppresses antiviral immunity. Therefore, inhibition of METTL3 would activate them.

ATF4 = experiment: Western analysis of ATF4 (ISR response gene); conditions: doxorubicin treated cells plus agent vs buffer treated
Description: as §6

MCF7 cells = experiment: Doxorubicin chemosurvival of MCF7 cells; conditions: for doxorubicin chemosurvival with co-treatment: 500 nM Doxorubicin treated MCF7 cells co-treated with agent (5 uM Trazodone, 5 uM ISRIB, 6uM Enzastaurin) vs DMSO buffer
Experimental: This was tested in METTL3 overexpression cells compared to CD-M3 cells compared to control Actin mRNA by qPCR. […] 500 nM Doxorubicin treated MCF7 cells were co-treated with (i) 5 uM of Trazodone, (ii) 5 uM of ISRIB, or DMSO buffer. […] Data are average of 3 replicates +/-SEM. Actin and Tubulin are loading controls for Western blots. See also FIG. 8A-8l.
as §4

METTL3 [4] = experiment: Western blot of METTL3 in BT549 cells; conditions: over time of treatment
phospho-elF2α [5] = experiment: Western blot of elF2α phosphorylation in BT549 cells; conditions: over time of treatment
Experimental: as §1
as §5, with “treatment. […] The increase observed is transient and is not observed at 48 h of treatment (FIG. 2A).” for “treatment.”

[6] = MCF7 cells, agent alone vs untreated/buffer, Western blot

CC(C)(C)Cn1c(N)nc2ccc(-c3[nH]c(C(C)(C)C)nc3-c3ccc(F)cc3)nc21 [LY2228820]
METTL3 level in doxorubicin treated cells co-treated with agent (METTL3 [1]; Western blot): reduces METTL3 increase

CCC(=O)N1CCN(c2ccc(-n3c(=O)ccc4cnc5ccc(-c6cnc7ccccc7c6)cc5c43)cc2C(F)(F)F)CC1 [Torin1]
METTL14 level (METTL14; MCF7 3D tumor spheres): increase | METTL3 level (METTL3 [1]; MCF7 3D tumor spheres): increase | METTL3 level (METTL3 [1]; [6]): increased | elF2α phosphorylation (phospho-elF2α [2]): elF2α phosphorylation | m6A on RNA (m6A on RNA): increased

O=c1n(CCCN2CCN(c3cccc(Cl)c3)CC2)nc2ccccn12 [trazodone]
METTL14 level in doxorubicin treated cells co-treated with agent (METTL14; doxorubicin treated cells plus agent (FIGS. 3D and 3E)): prevent | METTL3 level in doxorubicin treated cells co-treated with agent (METTL3 [1]; Western blot): do not show increase | survival of treated cancer cells co-cultured with immune cells [3]: loss of survival | ATF4 level in doxorubicin treated cells co-treated with agent (ATF4): do not show increase | doxorubicin chemosurvival with co-treatment (MCF7 cells): significant decrease | doxorubicin chemosurvival of shMETTL3 cells with agent (MCF7 cells; METTL3 depleted (shMETTL3) cells, doxorubicin plus Trazodone vs buffer (FIG. 8A)): Synergistic decrease in chemosurvival was not observed

[H]/N=C(/N)N/C(=N/[H])NCCc1ccccc1 [phenformin]
METTL3 level in doxorubicin treated cells co-treated with agent (METTL3 [1]; Western blot): decreased induction | survival of treated cancer cells co-cultured with immune cells [3]: loss of survival | elF2α phosphorylation in doxorubicin treated cells with agent (phospho-elF2α [2]): reduction | doxorubicin chemosurvival with co-treatment (MCF7 cells): decreased chemosurvival; also recorded: reduced doxorubicin survival

Nc1ccn([C@@H]2O[C@H](CO)[C@@H](O)C2(F)F)c(=O)n1 [Gemcitabine]
METTL3 level (METTL3 [1]; [6]): increase over time | elF2α phosphorylation (phospho-elF2α [2]): increase over time | METTL3 level (METTL3 [4]): increase over time | elF2α phosphorylation (phospho-elF2α [5]): increase over time

O=[N+]([O-])c1ccc(Nc2nc(N3CCOCC3)nc(N3CCOCC3)n2)cc1 [MHY1485]
METTL3 level (METTL3 [1]; [6]): decreased

Cn1cc(C2=C(c3cn(C4CCN(Cc5ccccn5)CC4)c4ccccc34)C(=O)NC2=O)c2ccccc21 [Enzastaurin]
METTL3 level in doxorubicin treated cells co-treated with agent (METTL3 [1]; Western blot): reduced | doxorubicin chemosurvival with co-treatment (MCF7 cells): reduced

C[S+]([O-])c1ccc(-c2nc(-c3ccncc3)c(-c3ccc(F)cc3)[nH]2)cc1 (stereo not drawn) [SB203580]
METTL3 level in doxorubicin treated cells co-treated with agent (METTL3 [1]; Western blot): reduces METTL3 increase

Nc1ncnc2c1nnn2[C@@H]1O[C@H](CO)[C@@H](O)[C@H]1O [8-azaadenosine]
survival of treated cancer cells co-cultured with immune cells [3]: sensitive to anti-tumor immunity | doxorubicin chemosurvival with co-treatment (MCF7 cells): reduced doxorubicin survival

Cn1c(=O)n(-c2ccc(C(C)(C)C#N)cc2)c2c3cc(-c4cnc5ccccc5c4)ccc3ncc21 [BEZ 235]
METTL3 level (METTL3 [1]; [6]): Increase | elF2α phosphorylation (phospho-elF2α [2]): elF2α phosphorylation

CC(=O)O[C@H]1C(=O)[C@@]2(C)[C@H]([C@H](OC(=O)c3ccccc3)[C@]3(O)C[C@H](OC(=O)[C@H](O)[C@@H](NC(=O)c4ccccc4)c4ccccc4)C(C)=C1C3(C)C)[C@]1(OC(C)=O)CO[C@@H]1C[C@@H]2O [Taxol]
METTL3 level (METTL3 [4]): increase over time | elF2α phosphorylation (phospho-elF2α [5]): increase over time

CN(C)C(=N)N=C(N)N [metformin]
METTL3 level in doxorubicin treated cells co-treated with agent (METTL3 [1]; Western blot): decreased induction | survival of treated cancer cells co-cultured with immune cells [3]: loss of survival | elF2α phosphorylation in doxorubicin treated cells with agent (phospho-elF2α [2]): reduction | doxorubicin chemosurvival with co-treatment (MCF7 cells): decreased chemosurvival

C/C=C(/C)C(=O)O[C@H]1C(C)=C2[C@H]([C@@H]1OC(=O)CCCCCCC)[C@@](C)(OC(C)=O)C[C@H](OC(=O)CCC)[C@@]1(O)[C@H]2OC(=O)[C@@]1(C)O [thapsigargin]
METTL14 level (METTL14; [6]): increase | METTL3 level (METTL3 [1]; [6]): increase | elF2α phosphorylation (phospho-elF2α [2]): induces

Cn1ncnc1[C@H]1c2n[nH]c(=O)c3cc(F)cc(c23)N[C@@H]1c1ccc(F)cc1 [Talazoparib]
doxorubicin chemosurvival with co-treatment (MCF7 cells): sensitive

COc1ccc(COc2cc3oc(=O)c4cc(C(C)O)ccc4c3cc2OC)cc1 (stereo not drawn) [Palomid 529]
METTL3 level (METTL3 [1]; [6]): Increase
